According to patent EP1293213A1, “PREVENTIVES/REMEDIES FOR POSTOPERATIVE STRESS” (Japan Tobacco Inc., priority 2000, dated 2001):

Columns and labels:
[1] = biological target: T1, CRF type I(CRF-I) receptor (Homo sapiens, UniProt P34998); test: in vitro Binding Assay using membrane fraction of recombinant cell (6EF2B) expressing CRF receptor gene (SPA method); details: 125I-Tyr0-human/rat CRF, membrane fraction of 6EF2B cells (derived from Hela cell), read-out: IC50(nM) [experiment 1]
T1 construct: expressed in transfected cells; membrane fraction
T1 sequence (P34998 24-415): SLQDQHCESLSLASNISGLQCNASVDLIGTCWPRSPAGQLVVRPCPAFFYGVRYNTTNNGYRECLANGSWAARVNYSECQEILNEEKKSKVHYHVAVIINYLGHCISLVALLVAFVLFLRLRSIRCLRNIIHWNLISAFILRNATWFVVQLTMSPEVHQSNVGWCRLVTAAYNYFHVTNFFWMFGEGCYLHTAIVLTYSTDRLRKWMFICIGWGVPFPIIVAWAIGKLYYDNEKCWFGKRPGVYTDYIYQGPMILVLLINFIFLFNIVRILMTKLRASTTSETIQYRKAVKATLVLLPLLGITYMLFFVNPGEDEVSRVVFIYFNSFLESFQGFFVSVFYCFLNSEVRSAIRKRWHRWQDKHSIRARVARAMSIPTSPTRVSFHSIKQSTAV
Protocol: Experiment 1 : in vitro Binding Assay using membrane fraction of recombinant cell (6EF2B) with expression of CRF receptor gene
Preparation of membrane fraction:
Recombinant cells 6EF2B (derived from Hela cell), which express CRF type I(CRF-I) receptor gene stably, were cultivated in Eagle's MEM medium(10%FCS, 400ug/ml G418.1/100 penicillin/streptomycin). After cultivation, cells were suspended in 50mM Tris-HCl (pH7.2) solution containing 1mM EDTA and incubated at 25°C for 15 to 30 minutes. After that, every step was carried out at 4°C. Treated cells were suspended in 50mM Tris-HCl(pH7.2) containing 10% sucrose and homogenized by a Polytron(PT10-35 model). This step of homogenization was carried out at 25,000 rpm for 15 to 20 seconds and repeated twice or three times. In the course of this step the homogenates were inspected under a microscope. Homogenates were centrifuged at 600 x g for 5 minutes and the supernatant was centrifuged again at 40,000 x g for 30 minutes. The obtained pellet was resuspended in 50mM Tris-HCl(10mM MgCl2, 2mM EGTA) and the suspension was centrifuged again at 40,000 x g for 30minutes. The obtained pellet was used for further experiments as membrane fraction. The membrane fraction was diluted with 50mM Tris-HCl(10mM MgCl2, 2mM EGTA, 0.1%BSA, 100 kallikrein units/ml aprotinin, 0.1mM bacitracin, pH7.2) to have the concentration of 1mg/ml and then stored at -80°C. DC protein assay kit (produced by Bio-RAD) was used to determine the protein concentration of the membrane fraction.
Binding Assay using CRF-I receptor by means of SPA method:
Compounds to be evaluated were stored at the concentration of 10mM in DMSO. […] The assay buffer consisted of 50mM Tris-HCl (pH7.7) containing 100mM NaCl, 5mM KCl, 2mM CaCl2, 0.1% BSA, 0.1% bacitracin, 0.05% FCS and 5% horse serum. The reactions were carried out in 96-well Optiplate(Packard) in which to 50ul of the test substance solution, were added 50ul of WGA-beads & membrane fraction (50 to 100ug membrane fraction/10mg beads/ml) pre-coupled by stirring (rotating with 10rpm) at room temperature for 2 hours on the day of experiment, and 100ul of 0.4nM ^125I-Tyr^0-human/rat CRF(NEX-216, Dupont NEN), to be made up 200ul as total volume, and the mixture was incubated at 25°C for 3 hours. By the way, the step of pre-coupling was carried out by using beads solution (20mg/ml) suspended in 50mM Tris-HCl buffer solution (pH7.2) and after stirring beads were washed twice with Tris-HCl buffer and once with assay buffer by centrifugation (3000 rpm, 5 minutes). In order to measure total binding and non-specific binding activity, assay buffer solution and 1uM(final conc.) cold human /rat CRF(C-3042; SIGMA) solution were used respectively in place of test substance solution. After incubation, the mixture was centrifuged at 23 °C, 2,500 rpm for 5 minutes and the scintillation was counted with Top Count (Packard). An influence of color quench was corrected by standard curve made by using tartrazine as a quencher. Evaluation of samples was carried out several times.

corticosterone(CORT) = test: Experiment 3: Model of surgical stress in mouse (inhibitory action of rise in releasing of CORT); format: in vivo; details: ddY male mice, intravenous, blood 30 minutes after incision
Protocol: Experiment 3: Model of surgical stress in mouse (Inhibitory action of rise in releasing of corticosterone(CORT))
ddY male mice(SLC, 7 weeks of age: weight 35 to 41g)were used. Mice were housed before use under controlled lighting condition (12hours light and 12hours dark cycle(lights on from 8:00 to 20:00) at 23±3 °C and humidity 55±15%, and maintained with basal diet and water ad labium. On the experimental day, after mice were weighted, diet was removed from mice just before experiments to eliminate the effects of food intake on experiments. Then, mice were moved to experimental room and habituated before experiment for more than 1 hour. On the day before experiment, mice were previously handled (by being fastened up for 10 to 15 seconds like the case of i.p. injections) to habituate to the stress caused by handling. Mice were divided into groups according to their weights on the experimental day.
Medicine applied and method of administration: […]
Mice were anesthetized by injections of pentobarbital Na (2.5mg/mouse i.p.) and after 20 minutes the solvent alone or the solution containing test sample to be evaluated were intravenously injected into the tail veins of mice at a dose of 10ml/Kg weight. […]
The concentration of CORT was determined by using Corticosterone Double Antibody (RIA measurement kit of CORT; ICN Pharmaceuticals, Inc.). […]

[2] = system: adrenocorticotropic hormone(ACTH); test: Experiment 2: Model of surgical stress in mouse (inhibitory action of rise in releasing of ACTH); format: in vivo; details: ddY male mice, intravenous, surgical stress (abdominal incision, bowel draped externally)
Protocol: Experiment 2: Model of surgical stress in mouse (Inhibitory action of rise in releasing of adrenocorticotropic hormone(ACTH))
ddY male mice(SLC, 7 to 8 weeks of age: weight 34 to 42g)were used for experiments. Mice were housed before use under controlled lighting condition (12hours light and 12hours dark cycle(lights on from 8:00 to 20:00) at 23±3 °C and 55±15% humidity, and maintained with basal diet and water ad labium. On the experimental day, mice were moved to experimental room and habituated before experiment for more than 1 hour. On the day before experiment, mice were previously handled (by being fastened up for 10 to 15 seconds like the case of i.p. injections) to habituate to the stress caused by handling.
Medicine and administration:
Test compound to be evaluated was dissolved in and diluted with physiological saline(Otsuka), 5% mannitol or 0.1N NaHCO3/saline. Then the test sample solution was given into veins of mice at a dose of 10ml/Kg body weight. The same solvent alone mentioned above was given into veins of control mice group at a dose of 10ml/Kg weight.
Mice were anesthetized by injection of pentobarbital Na (2.5mg/mouse i.p.) and after 15 minutes the solvent alone or the solution containing test sample to be evaluated were intravenously injected on the tails of mice at a dose of 10ml/ Kg weight of mouse. After more 10 minutes a midline incision was made in the abdomen and in two minutes bowel was draped externally. Then 2.5 minutes after incision 0.6ml of blood samples were collected from main vein abdominalis for 1 minute gradually by using prechilled syringes(needle size 25G), which were wetted with 100mM EDTA solution. Control mice not subjected to surgical stress were decapitated and blood samples were collected at 13 to 14 minutes after medication of solvent alone and to them added 20ul of 100mM EDTA. Blood samples collected were put into siliconized tubes and centrifuged at 10,000rpm and 4°C for 5 minutes. The concentration of ACTH in supernatant was determined by IRMA method using Allegro ACTH kit (Nihon Medi+Physics Co.,Ltd.). […]

With `CCc1cc(S(=O)(=O)N(CC)CC)cc(NC(=O)c2cc(Cl)c([O-])c(Cl)c2)c1OC.[K+]` [Example 7, potassium 2,6-dichloro-4-(N-(3-ethyl-5-diethylsulfamoyl-2-methoxyphenyl)carbamoyl)phenoxide] the IC50 [1] was 263 nM, the “Inhibitory action on CORT release (mg/kg) [experiment 3]” value (corticosterone(CORT)) was 10 to 30 mg/kg and the “Inhibitory action on ACTH release (mg/kg) [experiment 2]” value [2] was 10 to 30 mg/kg.
